# Legend:
# Assay type in all cases: biochemical
# [1] = test system: N-acetyl-(R)-β-amino acid acylase derived from Variovorax sp. AJ110348 (JM109/pSFN_1VR cell-free extract); test: Substrate specificity and optical selectivity with cell-free extract of JM109/pSFN_1VR; conditions: for Concentration of acetic acid detected: JM109/pSFN_1VR 50 mU cell-free extract, 37° C.; for optical selectivity of β-amino acid produced (ee): after reacting for 24 hours; for optical selectivity of β-amino acid produced (ee) / β-amino acid enantiomer detected in the reaction solution: chiral HPLC; for β-amino acid enantiomer detected in the reaction solution: 24 hours (10 minutes for the 3,4-(—O—CH2—O—) substrate)
# Description: (§1) An Astec Chirobiotec T (0.46 cm in diameter, 25 cm) column was employed. A 90 percent MeOH mobile phase was employed. The temperature was 40° C. and the flow rate was 0.4 mL/minute. Optical selectivity was determined based on comparison with various standard (R) and (S) standard products under UV detection conditions of 205 nm.
# (§2) The column employed was comprised of an Inertsil ODS3 (0.46 cm in diameter, 5 cm) made by GL Science and a Chiralpak WH (0.46 cm in diameter, 25 cm) made by Daisel Chemical Industries, arranged consecutively in that order. The mobile phase was 1 mM CuSO4, 10 percent MeOH. The temperature was 50° C. and the flow rate was 1.0 mL/minute. Detection was conducted with a UV detector at 210 nm and optical selectivity was determined by comparison with standard (R) and (S) products.
# (§3) JM109/ptrp4—3BR, JM109/pSFN—2BS, and JM109/pSFN—1VR were precultured for 16 hours at 37° C. in LB medium containing 100 mg/L of ampicillin. 1 mL quantity of the cultured bacterial cells was transplanted to 50 mL of TB medium containing 100 mg/L of ampicillin and cultured for 16 hours at 30° C. The bacterial cells obtained were centrifugally separated to concentrate the bacteria cells. The bacterial cells were washed with 50 mM Tris buffer solution (pH 7.6) and the same buffer solution was used to prepare a bacterial cell suspension. Ultrasonic rupturing was employed to rupture the bacterial cells. A supernatant solution obtained by centrifugal separation (15,000 g, 10 minutes, 4° C.) was employed as a cell-free extract, and substrate specificity for the various N-acetyl-(R,S)-β-amino acids described above in Embodiments 2-1 to 9 was examined.
# (§4) After adjusting the enzymes by the above methods, their activity was measured. Activity producing 1 μmol of β-Phe per minute from N-acetyl-(R,S)-β-Phe was denoted as 1 U. In the various examination of substrate specificity, 50 mU cell-free extracts were employed. As a negative control, instead of the cell-free medium prepared as set forth above, a 50 mM Tris buffer solution (pH 7.6) that had been reacted with each of the substrates was employed as an “Enzyme-” test zone, and instead of the individual substrates, 50 mM Tris buffer solution (pH 7.6) that had been reacted with each of the cell-free extracts was employed as a “Substrate-” test zone.
# (§5) 50 mM Tris-HCl (pH 7.6) and 0.2 percent of various N-acetyl-(R,S)-β-amino acids were reacted at 37° C. for 1 hour or 24 hours, and then processed for 10 minutes at 96° C. to stop the reactions. The quantity of acetic acid produced by the decomposition of acetyl groups was determined by the protocol of an acetic acid kit (Roche).
# (§6) After reacting for 24 hours, the samples were analyzed with various chiral resolution columns to determine optical selectivity.
# (§7) A 300 μL quantity of culture solution was washed with 50 mM Tris-HCl (pH 7.6), suspended in 300 μL of 50 mM Tris-HCl (pH 7.6), and subjected to ultrasonic rupturing to rupture the bacteria. A supernatant solution obtained by centrifugal separation (15,000 g, 10 minutes, 4° C.) was employed as cell-free extract in the reaction.
# (§8) 50 mM Tris-HCl (pH 7.6) and 0.2 percent N-acetyl-(R,S)-3,4-(—O—CH2—O—)-β-phenylalanine were reacted for 10 minutes at 37° C. When 3,4-(—O—CH2—O—)-β-phenylalanine was quantized under the separation conditions of N-acetyl-β-Phe and β-Phe, the activity per mL of cell-free extract was 0.2 U for JM109/ptrp4—3BR, 3.9 U for JM109/pSFN—2BS, and 27.8 U for JM109/pSFN—1VR.
# (§9) Various enzymes were prepared from the same bacterial cells and by the same methods as in 12-1, and 50 mU cell-free extracts were employed in the reaction. 50 mM Tris-HCl (pH 7.6) and 1 percent N-acetyl-(R,S)-β-3-Pyr-Ala were reacted for 1 hour at 37° C., after which the reaction was stopped by treatment at 70° C. for 10 minutes. The quantity of acetic acid generated by the decomposition of acetyl groups was determined by the protocol of an acetic acid kit (Roche).
# [2] = test system: N-acetyl-(R)-β-amino acid acylase derived from Burkholderia sp. AJ110349 (JM109/ptrp4_3BR cell-free extract); test: Substrate specificity and optical selectivity with cell-free extract of JM109/ptrp4_3BR; conditions: for Concentration of acetic acid detected: JM109/ptrp4_3BR 50 mU cell-free extract, 37° C.; for optical selectivity of β-amino acid produced (ee): after reacting for 24 hours; for optical selectivity of β-amino acid produced (ee) / β-amino acid enantiomer detected in the reaction solution: chiral HPLC; for β-amino acid enantiomer detected in the reaction solution: 24 hours (10 minutes for the 3,4-(—O—CH2—O—) substrate)
# Description: as §1, §2, §3, §4, §5, §6, §7, §8, §9
# [3] = test system: N-acetyl-(S)-β-amino acid acylase derived from Burkholderia sp. AJ110349 (JM109/pSFN_2BS cell-free extract); test: Substrate specificity and optical selectivity with cell-free extract of JM109/pSFN_2BS; conditions: for optical selectivity of β-amino acid produced (ee) / β-amino acid enantiomer detected in the reaction solution: JM109/pSFN-2BS, chiral HPLC; for optical selectivity of β-amino acid produced (ee): after reacting for 24 hours; for β-amino acid enantiomer detected in the reaction solution: 24 hours (10 minutes for the 3,4-(—O—CH2—O—) substrate); for Concentration of acetic acid detected: JM109/pSFN_2BS 50 mU cell-free extract, 37° C.
# Description: as §1, §2, §3, §4, §5, §6, §7, §8, §9
# [4] = 0.2 percent substrate, 24 hours
SMILES,"Concentration of acetic acid detected ([1]; 0.2 percent substrate, 1 hour)","Concentration of acetic acid detected [1, 4]",optical selectivity of β-amino acid produced (ee) ([1]; JM109/pSFN—1VR),β-amino acid enantiomer detected in the reaction solution ([1]; JM109/pSFN—1VR),"Concentration of acetic acid detected ([2]; 0.2 percent substrate, 1 hour)","Concentration of acetic acid detected [2, 4]",optical selectivity of β-amino acid produced (ee) ([2]; JM109/ptrp4—3BR),β-amino acid enantiomer detected in the reaction solution ([2]; JM109/ptrp4—3BR),optical selectivity of β-amino acid produced (ee) [3],β-amino acid enantiomer detected in the reaction solution [3],"Concentration of acetic acid detected ([3]; 0.2 percent substrate, 1 hour)","Concentration of acetic acid detected [3, 4]","acetic acid detected ([1]; JM109/pSFN—1VR 50 mU cell-free extract, 1 percent substrate, 1 hour at 37° C.)","acetic acid detected ([2]; JM109/ptrp4—3BR 50 mU cell-free extract, 1 percent substrate, 1 hour at 37° C.)","acetic acid detected ([3]; JM109/pSFN—2BS 50 mU cell-free extract, 1 percent substrate, 1 hour at 37° C.)","activity per mL of cell-free extract ([1]; JM109/pSFN—1VR, 0.2 percent substrate, 10 minutes at 37° C.)","activity per mL of cell-free extract ([2]; JM109/ptrp4—3BR, 0.2 percent substrate, 10 minutes at 37° C.)","activity per mL of cell-free extract ([3]; JM109/pSFN—2BS, 0.2 percent substrate, 10 minutes at 37° C.)"
"CC(=O)NC(CC(=O)O)C(C)C (racemic) [N-Ac-β-Leu, N-acetyl-(R,S)-β-Leu]",0.0 mM,1.0 mM,> 99 % ee,(R)-β-Leu was detected,0.2 mM,5.6 mM,> 99 % ee,(R)-β-Leu was detected,> 99 % ee,(S)-β-Leu was detected,1.6 mM,6.2 mM,,,,,,
"CC(=O)NC(CC(=O)O)c1ccc(F)cc1 (racemic) [N-Ac-β-4-F-Phe, N-acetyl-(R,S)-4-fluoro-β-Phe]",4.6 mM,4.7 mM,> 99 % ee,(R)-4-fluoro-β-Phe was detected,4.6 mM,5.4 mM,94 % ee,(R)-4-fluoro-β-Phe was detected,> 99 % ee,(S)-4-fluoro-β-Phe was detected,5.2 mM,5.1 mM,,,,,,
"CC(=O)NC(C)CC(=O)O (racemic) [N-Ac-β-Aba, N-acetyl-(R,S)-β-aminobutyric acid]",0.0 mM,0.1 mM,,,0.1 mM,0.6 mM,,,,,0.1 mM,0.3 mM,,,,,,
"CC(=O)NC(CC(=O)O)c1ccc(O)cc1 (racemic) [N-Ac-β-Tyr, N-acetyl-(R,S)-β-Tyr]",5.1 mM,4.6 mM,> 99 % ee,(R)-β-Tyr was detected,4.5 mM,4.9 mM,61 % ee,(R)-β-Tyr was detected,> 99 % ee,(S)-β-Tyr was detected,5.2 mM,5.2 mM,,,,,,
"CC(=O)NC(CC(=O)O)c1ccccc1 (racemic) [N-Ac-β-Phe, N-acetyl-(R,S)-β-Phe]",5.2 mM,,,,5.0 mM,,,,,,5.3 mM,,,,,,,
"CC(=O)NC(CC(=O)O)c1cccnc1 (racemic) [N-acetyl-(R,S)-β-3-Pyr-Ala]",,,,,,,,,,,,,0.8 mM,3.5 mM,8.4 mM,,,
"CC(=O)NC(CC(=O)O)Cc1ccccc1 (racemic) [N-Ac-β-homoPhe, N-acetyl-(R,S)-β-homoPhe]",0.1 mM,2.6 mM,> 99 % ee,(S)-β-homoPhe was detected,1.6 mM,3.7 mM,98 % ee,(S)-β-homoPhe was detected,> 99 % ee,(R)-β-homoPhe was detected,0.5 mM,4.0 mM,,,,,,
"CC(=O)NC(CC(=O)O)CC(C)C (racemic) [N-Ac-β-homoLeu, N-acetyl-(R,S)-β-homoLeu]",0.0 mM,0.6 mM,> 99 % ee,(S)-β-homoLeu was detected,3.0 mM,7.5 mM,69 % ee,(S)-β-homoLeu was detected,> 99 % ee,(R)-β-homoLeu was detected,1.2 mM,5.4 mM,,,,,,
"CC(=O)NC(CC(=O)O)c1ccc2c(c1)OCO2 (racemic) [N-acetyl-(R,S)-3,4-(—O—CH2—O—)-β-phenylalanine]",,,,"(R)-3,4-(—O—CH2—O—)-β-phenylalanine was detected",,,,"(R)-3,4-(—O—CH2—O—)-β-phenylalanine was detected",,"(S)-3,4-(—O—CH2—O—)-β-phenylalanine was detected",,,,,,27.8 U,0.2 U,3.9 U

# Source: patent US7858348B2, “N-acetyl-(R,S)-beta-amino acid acylase gene” (Ajinomoto Co., Inc., priority 2006, dated 2010)
